US20210284621A1 (priority 2018, published 2021)
Entries after “also recorded” stand apart in the source; their conditions may differ. Like-named read-outs stand apart in the source and are kept apart here.

Assays:
[1] = Pharmacokinetics after IV dose in mice; settings: in vivo, 1 mg/kg IV, male C57BL/6 mice; for AUC(0-t): male, C57BL/6, mouse, iv, 1 mg/kg; for AUC(0-inf) / C0 / MRT inf / clearance / half-life / Vd: mouse; for Vd: read-out: Vss
Method: Male C57BL/6 mice were administered an intravenous (IV) dose of 1 mg/kg of the indicated compound.

[2] = Pharmacokinetics after PO dose in mice; assay type: in vivo, Male C57BL/6 mice; settings: 10 mg/kg PO; for AUC(0-inf) / Cmax / MRT inf / Tmax / half-life / AUC(0-t): male, C57BL/6, mouse, in vivo; for AUC(0-t): read-out: AUC0-24 hr
CB1 receptor [3] = target: T1, CB1 receptor (Homo sapiens, UniProt P21554); assay: cAMP Assay #1: CB1 adenylylcyclase assay in CHO cells; assay type: cell-based; set-up: expressed in transfected cells; host or cells: CHO cells
T1 sequence (P21554 whole entry): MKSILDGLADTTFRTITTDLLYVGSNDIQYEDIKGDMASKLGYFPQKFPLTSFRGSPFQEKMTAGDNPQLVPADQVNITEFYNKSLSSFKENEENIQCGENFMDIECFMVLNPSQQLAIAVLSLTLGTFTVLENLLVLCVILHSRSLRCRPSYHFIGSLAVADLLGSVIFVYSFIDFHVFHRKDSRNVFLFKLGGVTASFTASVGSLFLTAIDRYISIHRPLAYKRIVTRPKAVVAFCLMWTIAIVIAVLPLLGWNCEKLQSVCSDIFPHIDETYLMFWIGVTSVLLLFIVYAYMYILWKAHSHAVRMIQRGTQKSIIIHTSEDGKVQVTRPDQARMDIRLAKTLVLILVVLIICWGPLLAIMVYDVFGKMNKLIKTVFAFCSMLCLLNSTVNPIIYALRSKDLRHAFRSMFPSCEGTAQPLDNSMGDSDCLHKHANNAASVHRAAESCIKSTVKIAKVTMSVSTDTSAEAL
How it was run: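 CHO cells expressing human recombinant CB1 incubated with compound 20 min at 37 °C; agonism read as change in cAMP production. EC50 from non-linear Hill-equation fit of mean replicate concentration-response curves.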

CB1 receptor [4] = target: T1, CB1 receptor; assay: CB1 competitive radioligand binding assay ([3H] SR141716A); set-up: expressed in transfected cells; host or cells: Chem-1 cells; settings: for inhibition at 0.5 µM: 0.5 μM compound, 2.0 nM [3H] SR141716A, 90 min 37° C.
How it was run: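 Chem-1 cells expressing human recombinant CB1 incubated 90 min at 37° C with 2.0 nM [3H]SR141716A and compound at 0.5 μM (1% DMSO) in HEPES pH 7.4 buffer with MgCl2, CaCl2, 0.2% BSA. Read-out is % inhibition of radioligand binding.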

CB2 receptor = CB2 receptor (Homo sapiens, UniProt P34972); assay: CB2 competitive radioligand binding assay ([3H] WIN-55,212-2); set-up: expressed in transfected cells; host or cells: CHO-K1 cells; settings: for Fold Selectivity (CB1/CB2): Table 2, ratio of Ki CB1/CB2; for inhibition at 0.05 µM: 0.05 μM compound, 2.4 nM [3H] WIN-55,212-2, 90 min 37° C.
CB2 receptor, sequence (P34972 whole entry): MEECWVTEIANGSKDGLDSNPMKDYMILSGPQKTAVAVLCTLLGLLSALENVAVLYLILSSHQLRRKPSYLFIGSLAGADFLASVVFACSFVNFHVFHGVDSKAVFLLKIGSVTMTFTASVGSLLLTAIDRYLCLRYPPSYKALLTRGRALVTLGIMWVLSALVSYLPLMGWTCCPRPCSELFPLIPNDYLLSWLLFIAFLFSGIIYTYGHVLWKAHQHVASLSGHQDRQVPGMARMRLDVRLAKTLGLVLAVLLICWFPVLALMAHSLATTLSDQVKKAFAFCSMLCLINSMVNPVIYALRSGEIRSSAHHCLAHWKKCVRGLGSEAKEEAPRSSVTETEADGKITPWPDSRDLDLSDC
How it was run: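 CHO-K1 cells expressing human recombinant CB2 were incubated with compound (0.05 μM, 1% DMSO) and 2.4 nM [3H]WIN-55,212-2 in 20 mM HEPES pH 7.0, 0.5% BSA for 90 min at 37 °C. Percent inhibition of radioligand binding was reported.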

[5] = test system: 12 systems of human primary cells; assay: BioMAP Diversity PLUS phenotypic screen; assay type: cell-based; settings: 3.3 μM; for Anti-proliferation: cell type in which anti-proliferative effect was seen; for Immune modulation, cell surface and tissue remodeling biomarkers: changes at least 1.5-fold from vehicle control
Method: Compounds of the invention were assayed for their effects on 148 biomarkers of inflammation, immune modulation and tissue remodeling in the BioMAP® Diversity PLUS® (DiscoverX) platform designed to model aspects of human diseases in vitro (Kunkel 2004, Berg 2006, Melton 2013).
The example compounds (3.3 μM) in Table 8 induced increases or decreases in the levels of the indicated 20 biomarkers, which are at least 1.5-fold change from vehicle control and are outside the significance prediction envelop. All compounds presented in Table 8 were not cytotoxic at the concentration tested.

[6] = Brain concentration and brain/plasma ratio after PO dose in mice; assay type: in vivo; settings: mouse, 10 mg/kg PO, male C57BL/6 mice; for Kp at 4 h / Kp at 10 h: brain/plasma; for concentration at 4 h / concentration at 10 h / concentration at 24 h: brain
Method: Male C57BL/6 mice were administered an oral (P0) dose of 10 mg/kg of the indicated compound. The brain/plasma ratios of the indicated compounds were determined by standard methods, the results of which are provided in Table 11.

[7] = CHO cells, 20 min 37° C., relative to 10 nM CP 55940, read-out: CB1 Activity EC50 (cAMP)
[8] = Table 2, read-out: CB1 Binding Ki
[9] = Table 2, read-out: CB2 Binding Ki

SMILES	AUC(0-t) ([1]; read-out: AUC0-24 hr)	AUC(0-t) ([1]; read-out: AUClast)	AUC(0-inf) [1]	C0 [1]	MRT inf [1]	clearance [1]	half-life [1]	Vd [1]	F [2]	Tlag [2]	AUC(0-inf) [2]	Cmax [2]	MRT inf [2]	Tmax [2]	half-life [2]	AUC(0-t) [2]	EC50 (CB1 receptor [3]; [7])	Ki (CB1 receptor [4]; [8])	Fold Selectivity (CB1/CB2) (CB2 receptor)	Ki (CB2 receptor; [9])	also measured
CCCCCCC(C)(C)c1cc(O)c2c(c1)OC(C)(C)[C@@H]1CC=C(C(=O)NC[C@H](O)CO)C[C@@H]21 [Compound 56, (6aR,10aR)-N—((S)-2,3-Dihydroxypropyl)-1-hydroxy-6,6-dimethyl-3-(2-methyloctan-2-yl)-6a,7,10,10a-tetrahydro-6H-benzo[c]chromene-9-carboxamide]	2080 ng·h/mL	1790 ng·h/mL	1920 ng·h/mL	2790 ng/mL	2.3 h	8.7 mL/min/kg	2.39 h	1.2 L/kg	23.11%	0 h	4430 ng·h/mL	902 ng/mL	4.89 h	1 h	2.63 h	4420 ng·h/mL	0.0036 µM	0.708 µM	17	0.041 µM	–
CCCCCCC(C)(C)c1cc(O)c2c(c1)OC(C)(C)[C@@H]1CC=C(C(=O)OC(C)C)C[C@@H]21 [Compound 29, Isopropyl (6aR,10aR)-1-hydroxy-6,6-dimethyl-3-(2-methyloctan-2-yl)-6a,7,10,10a-tetrahydro-6H-benzo[c]chromene-9-carboxylate]	3550 ng·h/mL	3550 ng·h/mL	3570 ng·h/mL	17500 ng/mL	1.53 h	4.67 mL/min/kg	4.89 h	0.43 L/kg	3.98%	0.00 h	1420 ng·h/mL	203 ng/mL	6.2 h	6 h	4.21 h	1400 ng·h/mL	–	–	–	–	Anti-proliferation [5]: Dermal fibroblasts; Immune modulation, cell surface and tissue remodeling biomarkers [5]: Reduced Eotaxin-3, IL-8, E-selectin, P-selectin, VCAM, EGFR,; also recorded: IL-1α, IP-10, and PAI-I; Kp at 4 h [6]: 0.00637; Kp at 10 h [6]: 0.106; concentration at 4 h [6]: 1.72 ng/g; concentration at 10 h [6]: 7.93 ng/g; concentration at 24 h [6]: 0 ng/g; EC50 (CB1 receptor [3]): 0.0068 µM; inhibition at 0.5 µM (CB1 receptor [4]): 65%; inhibition at 0.05 µM (CB2 receptor): 79%
CCCCCCC(C)(C)c1cc(O)c2c(c1)OC(C)(C)[C@@H]1CC=C(C(=O)NC(C)(C)CCO)C[C@@H]21 [Compound 15, (6aR,10aR)-1-Hydroxy-N-(4-hydroxy-2-methylbutan-2-yl)-6,6-dimethyl-3-(2-methyloctan-2-yl)-6a,7,10,10a-tetrahydro-6H-benzo[c]chromene-9-carboxamide]	1720 ng·h/mL	1510 ng·h/mL	1570 ng·h/mL	1840 ng/mL	2.16 h	10.6 mL/min/kg	1.74 h	1.37 L/kg	37.4%	0.00 h	5890 ng·h/mL	779 ng/mL	5.07 h	4 h	2.65 h	5870 ng·h/mL	0.068 µM	0.66 µM	18.3	0.036 µM	Kp at 4 h [6]: 0.139; Kp at 10 h [6]: 0.331; concentration at 4 h [6]: 107 ng/g; concentration at 10 h [6]: 50.4 ng/g; concentration at 24 h [6]: 0 ng/g; inhibition at 0.5 µM (CB1 receptor [4]): 16%; inhibition at 0.05 µM (CB2 receptor): 54%
CCCCCCC(C)(C)c1cc(O)c2c(c1)OC(C)(C)[C@@H]1CC=C(C(=O)NC[C@@H](O)CO)C[C@@H]21 [Compound 55, (6aR,10aR)-N—((R)-2,3-Dihydroxypropyl)-1-hydroxy-6,6-dimethyl-3-(2-methyloctan-2-yl)-6a,7,10,10a-tetrahydro-6H-benzo[c]chromene-9-carboxamide]	2360 ng·h/mL	2360 ng·h/mL	2380 ng·h/mL	3060 ng/mL	3.38 h	7.02 mL/min/kg	3.99 h	1.42 L/kg	30.33%	0 h	7200 ng·h/mL	882 ng/mL	6.4 h	1 h	2.72 h	7170 ng·h/mL	0.045 µM	0.619 µM	19	0.033 µM	Anti-proliferation [5]: Dermal fibroblasts
CCCCCCC(C)(C)c1cc(O)c2c(c1)OC(C)(C)[C@@H]1CC=C(C(=O)NC(CO)CO)C[C@@H]21 [Compound 25, (6aR,10aR)-N-(1,3-Dihydroxypropan-2-yl)-1-hydroxy-6,6-dimethyl-3-(2-methyloctan-2-yl)-6a,7,10,10a-tetrahydro-6H-benzo[c]chromene-9-carboxamide]	–	–	–	–	–	–	–	–	–	–	–	–	–	–	–	–	0.016 µM	0.316 µM	4.33	0.073 µM	Anti-proliferation [5]: Dermal fibroblasts; Immune modulation, cell surface and tissue remodeling biomarkers [5]: Reduced VCAM-1, PAI-I, IL-10, and M-CSF; increased MMP-1; inhibition at 0.5 µM (CB1 receptor [4]): 29%; inhibition at 0.05 µM (CB2 receptor): 36%
CCCCCCC(C)(C)c1cc(O)c2c(c1)OC(C)(C)[C@@H]1CC=C(C(=O)O)C[C@@H]21 [AJA, (6aR,10aR)-1-hydroxy-6,6-dimethyl-3-(2-methyl-2-octanyl)-6a,7,10,10a-tetrahydro-6H-benzo[c]chromene-9-carboxylic acid, reference compound]	2770 ng·h/mL	2420 ng·h/mL	2510 ng·h/mL	1750 ng/mL	1.89 h	6.67 mL/min/kg	1.41 h	0.75 L/kg	70.79%	0 h	17800 ng·h/mL	3860 ng/mL	3.42 h	1 h	2.19 h	17800 ng·h/mL	–	–	–	–	EC50 (CB1 receptor [3]): 0.0046 µM; Ki (CB1 receptor [4]): > 3 µM; inhibition at 0.5 µM (CB1 receptor [4]): -1%; Ki (CB2 receptor): 0.633 µM; inhibition at 0.05 µM (CB2 receptor): 0%
